Results as given in patent US4515767A, “Radioactive metals complexed with phosphonate derivatives of dicyclopentadienebis(methylamine)” (The Dow Chemical Company, priority 1983, dated 1985).

Assays:
[1] = Uptake in end bone and midbone of femur in anesthetized rats, NaI scintillation counting (Table II); type: in vivo; conditions: vein, 120 minutes; for % Dose/gram End Bone: femur ends; for % Dose/gram Midbone: femur mid-section; for End-/Mid-bone: femur, ratio of end bone to midbone
Protocol: Fifty μl of the complex prepared in Example 1 was injected into the vein of anesthetized laboratory rats. After 120 minutes the animals were killed and the femurs removed. The ends of the bones were cut away from the mid-section and each section was weighed and analyzed separately. The amount of activity in the bone sections was quantitated using NaI scintillation counting. The results were compared to those of complexes prepared from commercial diphosphonate kits (Table II).

[2] = after intravenous administration; cited from earlier work

| Compound | % Dose/gram End Bone [1] [% Dose/gram] | % Dose/gram Midbone [1] [% Dose/gram] | End-/Mid-bone [1] | accumulation by bone (in words) [2] |
| --- | --- | --- | --- | --- |
| O=P(O)(O)OP(=O)(O)O [PYP, pyrophosphate] | 3.50 | 1.78 | 1.97 |  |
| methylenediphosphonate [MDP] | 3.95 | 1.90 | 2.08 |  |
| CC(O)(P(=O)(O)O)P(=O)(O)O [EHDP, hydroxyethanediphosphosphonate] | 3.40 | 1.46 | 2.33 |  |
| [85Sr] [Sr-85, Strontium-85] |  |  |  | rapidly accumulated by bone |
